Reference: ChEMBL document CHEMBL1126992, “The synthesis and biochemical evaluation of new A1 selective adenosine receptor agonists containing 6-hydrazinopurine moieties” (Bioorg Med Chem Lett, 1993)

Experiments:
Adenosine receptor A1 = molecular target: T1, Adenosine receptor A1 (Rattus norvegicus, UniProt P25099); experiment: Tested for inhibition of adenosine A1 receptor binding to rat brain
T1 sequence (P25099 whole entry): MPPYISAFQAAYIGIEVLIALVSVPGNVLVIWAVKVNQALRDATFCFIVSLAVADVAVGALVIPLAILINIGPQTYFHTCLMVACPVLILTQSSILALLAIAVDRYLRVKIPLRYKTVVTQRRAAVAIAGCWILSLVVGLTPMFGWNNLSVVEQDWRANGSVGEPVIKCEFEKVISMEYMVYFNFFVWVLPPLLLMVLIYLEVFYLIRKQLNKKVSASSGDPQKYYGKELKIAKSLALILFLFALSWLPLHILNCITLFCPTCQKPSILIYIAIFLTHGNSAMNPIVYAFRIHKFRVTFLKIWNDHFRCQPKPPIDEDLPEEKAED

Adenosine A2 receptor = Adenosine A2 receptor (Rattus norvegicus, UniProt P29276+P30543); experiment: Tested for inhibition of adenosine A2 receptor binding to rat brain
[1] = Partition coefficient (logP); assay type: physicochemical; conditions: octanol/water
Cavia porcellus [2] = organism: Cavia porcellus; experiment: Tested for agonistic potency to inhibit stimulated cAMP accumulation in isolated guinea pig heart; assay type: functional
Cavia porcellus [3] = organism: Cavia porcellus; experiment: Tested for agonistic potency to inhibit contractile force in isolated guinea pig atria; assay type: functional

Row | SMILES | Ki (Adenosine receptor A1) | Ki (Adenosine A2 receptor) | logP [1] | IC50 (Cavia porcellus [2]) | IC50 (Cavia porcellus [3])
1 | COC[C@H]1CCCN1Nc1nc(Cl)nc2c1ncn2[C@@H]1O[C@H](CO)[C@@H](O)[C@H]1O | 10.9 nM | 459 nM | 0.32 |  | 
2 | OC[C@H]1O[C@@H](n2cnc3c(NN4CCCC(Sc5ccccc5)C4)nc(Cl)nc32)[C@H](O)[C@@H]1O (mixture of isomers) | 13 nM | 1380 nM | 2.89 |  | 
3 | OC[C@H]1O[C@@H](n2cnc3c(NN4CCCCC4)nc(Br)nc32)[C@H](O)[C@@H]1O | 9.3 nM | 1520 nM | 0.89 |  | 
4 | OC[C@H]1O[C@@H](n2cnc3c(NN4CCCC(O)C4)nc(Cl)nc32)[C@H](O)[C@@H]1O (mixture of isomers) | 11 nM | 720 nM | -0.82 | 4.6 nM | 470 nM
5 | O=S(=O)(c1ccccc1)C1CCN(Nc2nc(Cl)nc3c2ncn3[C@@H]2O[C@H](CO)[C@@H](O)[C@H]2O)CC1 | 17 nM | 220 nM |  | 0.7 nM | 320 nM
6 | OC[C@H]1O[C@@H](n2cnc3c(NN4CCCCC4c4ccccc4)nc(Cl)nc32)[C@H](O)[C@@H]1O (stereo partly drawn) | 34 nM | 17 nM | 2.25 |  | 
7 | Nc1nc(NN2CCCCC2)c2ncn([C@@H]3O[C@H](CO)[C@@H](O)[C@H]3O)c2n1 | 30 nM | 3320 nM | -0.55 |  | 
8 | CSc1nc(NN2CCCCC2)c2ncn([C@@H]3O[C@H](CO)[C@@H](O)[C@H]3O)c2n1 | 390 nM | 2825 nM | 0.89 |  | 
9 | CCCOc1nc(NN2CCCCC2)c2ncn([C@@H]3O[C@H](CO)[C@@H](O)[C@H]3O)c2n1 | 400 nM | 2700 nM |  |  | 
10 | OC[C@H]1O[C@@H](n2cnc3c(NN4CCC(c5ccccc5)CC4)nc(Cl)nc32)[C@H](O)[C@@H]1O | 11 nM | 1200 nM | 2.36 | 2.5 nM | 320 nM
11 | OC[C@H]1O[C@@H](n2cnc3c(NN4CCC(Sc5ccccc5)CC4)nc(Cl)nc32)[C@H](O)[C@@H]1O | 0.9 nM | 470 nM | 2.62 | 0.3 nM | 640 nM
12 | OC[C@H]1O[C@@H](n2cnc3c(NN4CCCC4)nc(I)nc32)[C@H](O)[C@@H]1O | 13000 nM | 57000 nM | 1.42 |  | 
13 | OC[C@H]1O[C@@H](n2cnc3c(NN4CCOCC4)nc(Cl)nc32)[C@H](O)[C@@H]1O | 13.3 nM | 1040 nM | 0.11 |  | 
14 | OC[C@H]1O[C@@H](n2cnc3c(NC4CCCC4)nc(Cl)nc32)[C@H](O)[C@@H]1O |  |  | 2.07 |  | 
15 | OC[C@H]1O[C@@H](n2cnc3c(NN4CCCCC4)ncnc32)[C@H](O)[C@@H]1O | > 3000 nM | > 10000 nM | 1.28 |  | 
16 | OC[C@H]1O[C@@H](n2cnc3c(NN4CCN(c5ccccc5)CC4)nc(Cl)nc32)[C@H](O)[C@@H]1O | 55 nM | 5571 nM | 1.42 |  | 
17 | CN1CCN(Nc2nc(Cl)nc3c2ncn3[C@@H]2O[C@H](CO)[C@@H](O)[C@H]2O)CC1 | 184 nM | > 30000 nM | 0.11 |  | 
18 | OC[C@H]1O[C@@H](n2cnc3c(NN4CCC(Oc5ccccc5)CC4)nc(Cl)nc32)[C@H](O)[C@@H]1O | 1.4 nM | 1100 nM | 2.05 | 0.03 nM | 190 nM
19 | OC[C@H]1O[C@@H](n2cnc3c(NN4CCCCC4)nc(Cl)nc32)[C@H](O)[C@@H]1O | 4.2 nM | 1485 nM | 0.79 | 2.1 nM | 580 nM
20 | OC[C@H]1O[C@@H](n2cnc3c(NN4CC=C(c5ccccc5)CC4)nc(Cl)nc32)[C@H](O)[C@@H]1O | 6.1 nM | 638 nM | 2.28 | 1.1 nM | 2900 nM
21 | OC[C@H]1O[C@@H](n2cnc3c(NN4CCCCCC4)nc(Cl)nc32)[C@H](O)[C@@H]1O | 9.3 nM | 1130 nM | 1.42 |  | 
22 | COC[C@@H]1CCCN1Nc1nc(Cl)nc2c1ncn2[C@@H]1O[C@H](CO)[C@@H](O)[C@H]1O | 9.9 nM | 564 nM | 0.32 |  | 
23 | OC[C@H]1O[C@@H](n2cnc3c(NN4CCCC(Oc5ccccc5)C4)nc(Cl)nc32)[C@H](O)[C@@H]1O (mixture of isomers) | 15 nM | 1733 nM | 1.88 | 4.8 nM | 4500 nM
24 | CC1CCCC(C)N1Nc1nc(Cl)nc2c1ncn2[C@@H]1O[C@H](CO)[C@@H](O)[C@H]1O (stereo partly drawn) | 4 nM | 33 nM | 1.38 |  | 
25 | OC[C@H]1O[C@@H](n2cnc3c(NN4CCCCC4)nc(F)nc32)[C@H](O)[C@@H]1O | 3.6 nM | 1050 nM | 0.35 | 3.8 nM | 1290 nM
26 | OC[C@H]1O[C@@H](n2cnc3c(NC4CCCC4)ncnc32)[C@H](O)[C@@H]1O [N6-CYCLOPENTYLADENOSINE] |  | 321 nM | 0.72 | 0.6 nM | 420 nM
